Assay results taken from the METLIN SMRT retention time set (Domingo-Almenara et al. 2019).

Experiment: gradient 5% acetonitrile 3 min, to 50% in 2 min, to 85% in 15 min, held 3 min, 100 µL/min
Conditions: column: Zorbax Extend-C18 2.1 x 50 mm; eluents: water / acetonitrile, 0.1% formic acid
Outline: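 Values are retention times taken from adduct peaks that software picked and an analyst inspected. The pure standards were run as mixtures of ~100 molecules on HPLC linked to a quadrupole time-of-flight mass spectrometer, in positive and negative ionization mode. A Zorbax Extend-C18 column (2.1 × 50 mm, 1.8 μm) was used at 100 μL/min with water and acetonitrile, each including 0.1% formic acid.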

Row | RP-LC retention time | SMILES
1 | 868 s | Cc1c(S(=O)(=O)N2CCC(C(=O)NCc3csc(-c4ccccc4)n3)CC2)cnn1C(F)F
2 | 684 s | CCC(C)NC(=O)Cn1nc2nc(Nc3ccc(F)cc3)ccn2c1=O (configuration not stated)
3 | 591 s | Cn1c(CCNC(=O)c2ccccc2F)nc2cccnc21
4 | 780 s | Cc1nn(-c2ccc(C(=O)NCc3ccc4c(c3)OCO4)cc2)c2c1C(=O)CCC2
5 | 613 s | Cc1ccsc1C(=O)NCC(=O)Nc1nc2ccccc2[nH]1
6 | 937 s | COc1ccc(Cc2nn3c(CSc4ccccc4)nnc3s2)cc1
7 | 1040 s | COc1ccc(-c2nc3cnccn3c2Nc2ccc(C)cc2Br)cc1
8 | 709 s | O=C(Cn1cccc1-c1nnc(-c2ccccc2)o1)N1CCN(Cc2ccc3c(c2)OCO3)CC1
9 | 998 s | Cc1ccc2c(c1)N(S(C)(=O)=O)CCC(C(=O)Nc1ccc(F)c(Cl)c1)O2 (configuration not stated)
10 | 1060 s | COc1cccc(NC(=O)CSc2cc(N3CCN(c4ccccc4F)CC3)ncn2)c1
11 | 885 s | O=C(Cn1c(=O)c2cc(-c3cccs3)nn2c2ncccc21)NCc1ccc(Cl)cc1
12 | 1160 s | COC(=O)c1cnc(N2CCN(c3ccccc3)CC2)c2ccccc12
13 | 941 s | Cc1ccccc1-c1noc(-c2nn(-c3cccc(F)c3)ccc2=O)n1
14 | 831 s | Cc1noc(-c2cc(=O)n(CC(=O)Nc3ccc4c(c3)OCO4)c3ccccc23)n1
15 | 617 s | CN1CCN(CCNC(=O)c2ccc3c(c2)N(S(=O)(=O)c2ccccc2F)CC3)CC1
16 | 595 s | CN(C)S(=O)(=O)c1ccc(-c2nnc(C(=O)NCc3cccnc3)o2)cc1
17 | 722 s | Cn1ncc(NC(=O)Cc2cccc(F)c2)c(N2CCOCC2)c1=O
18 | 921 s | COc1ccc(Cl)cc1S(=O)(=O)N1CCC(C(=O)Nc2ccccc2F)CC1
19 | 588 s | Cc1cc(C(=O)NCc2cccnc2)c2cc(Br)ccc2n1
20 | 622 s | CC(NC(=O)c1ccc2c(c1)nc1n2CCN(Cc2ccccc2)C1=O)c1ccccn1 (configuration not stated)
21 | 845 s | O=C(C(=O)N1CCN(c2ccccc2)CC1)c1c[nH]c2ccccc12
22 | 637 s | COc1cc(NC(=O)N2CCC(n3c(C)nc4cccnc43)CC2)cc(OC)c1
23 | 1010 s | Cc1ccc(N2CC(c3nc(-c4ccc(Cl)cc4)no3)CC2=O)cc1 (configuration not stated)
24 | 863 s | Cc1ccc(C(=O)N(CCCN)[C@@H](c2oc3cc(Cl)ccc3c(=O)c2Cc2ccccc2)C(C)C)cc1

Row | RP-LC retention time | SMILES
25 | 667 s | Cc1ccc(NC(=O)N2CCCC(Cn3cnc4cccnc43)C2)cc1 (configuration not stated)
26 | 689 s | CC1CCN(c2cc(C(=O)O)c3cc(NC(=O)c4ccc(Br)cc4)ccc3n2)CC1
27 | 857 s | CC(=O)N1CCc2c([nH]c3ccccc23)C12C(=O)N(C)c1ccc(Br)cc12 (configuration not stated)
28 | 650 s | CCn1c(CN(C)C(=O)Nc2ccc(Br)cc2F)nc2cc(C(=O)N(C)C)ccc21
29 | 783 s | CCOC(=O)c1ccc(NC(=O)C2CCN(S(=O)(=O)c3ccc4[nH]c(=O)ccc4c3)CC2)cc1
30 | 886 s | COC(=O)c1sc2ccccc2c1NC(=O)c1cc(C)n(C)n1
31 | 672 s | NS(=O)(=O)c1ccc(CCNC(=O)c2ccc3c(c2)NC(=O)C2CCCCN32)cc1 (configuration not stated)
32 | 836 s | COc1ccc(C(=O)Nc2cc(C(=O)O)ccc2N2CCN(c3ncccn3)CC2)cc1
33 | 902 s | COc1ccccc1C1CC(c2ccccc2NS(C)(=O)=O)=NN1C(=O)c1ccco1 (configuration not stated)
34 | 893 s | CCc1ccc(C2=C(C)C(N3CCCN(C(=O)c4cccs4)CC3)=NS2(=O)=O)cc1
35 | 790 s | COCCN1CCC2(CC1)CN(Cc1ccc(F)cc1Cl)Cc1ccccc1O2
36 | 871 s | Cc1cc(Cl)ccc1NC(=O)C1CCN(C(=O)c2ncn3c2COC(c2ccc(F)cc2)C3)CC1 (configuration not stated)
37 | 755 s | Cc1nc(N2CCN(c3ccccn3)CC2)nc2oc(-c3ccccc3)nc12
38 | 619 s | Cn1c(C2CCN(C(=O)NCCc3ccccc3)CC2)cc(=O)n2nccc12
39 | 624 s | COc1ccc(NC(=O)N2CCN(CCn3c(C(F)(F)F)nc4cccnc43)CC2)cc1
40 | 1070 s | CCc1ccc(OCC(=O)Nc2nnc(SCc3nnc(-c4ccccc4C)o3)s2)cc1
41 | 749 s | O=C(NC1CCN(c2cc(-c3cccs3)[nH]n2)CC1)c1ccc(Cl)cc1
42 | 644 s | O=C1CCCc2c1cc(C(=O)NCc1cccnc1)c(=O)n2-c1ccc(C(F)(F)F)cc1
43 | 622 s | Cc1cc(S(=O)(=O)N2CCN(C3CCN(Cc4ccccn4)C3=O)CC2)ccc1Cl (configuration not stated)
44 | 1110 s | COc1cccc(-c2ccc(=O)n(Cc3nc(-c4cccc(Br)c4)no3)n2)c1
45 | 988 s | O=C(Cc1ccc(F)cc1)Nc1nc(-c2ccccc2)cs1
46 | 794 s | CC(C)c1noc(-c2cccnc2N2CCCN(Cc3cccc(C(F)(F)F)c3)CC2)n1
47 | 990 s | O=C(Cn1cccc(-c2nc(-c3ccc(Br)cc3)no2)c1=O)Nc1ccc(F)cc1F
48 | 804 s | Cc1ccn2c(NC(=O)COc3ccc(Cl)cc3Cl)c(-c3ccc(F)cc3)nc2c1

Continued, molecule first:

Row | SMILES | RP-LC retention time
49 | CC(C)CNC(=O)C1(CCO)CCN(c2ncccn2)C1 (configuration not stated) | 584 s
50 | CCOc1ccc(-c2nc(-c3cccc(-c4ccn[nH]4)c3)no2)cc1OCC | 1080 s
51 | CCCNC(=O)CC1Sc2ncccc2N(CC(C)C)C1=O (configuration not stated) | 723 s
52 | CC(C)C(=O)N1CCc2cc(C(=O)N3CCCC3)ccc21 | 720 s
53 | CCN(CC)S(=O)(=O)c1ccc2c(c1)CC(C(=O)NCCC(C)C)N2C(C)=O (configuration not stated) | 848 s
54 | CN(C(=O)CN1C(=O)NC2(CCC(C(C)(C)C)CC2)C1=O)c1ccccc1 (configuration not stated) | 979 s
55 | CCOC(=O)c1cc(S(=O)(=O)N2CCCC2C(=O)Nc2cc(F)ccc2F)cn1C (configuration not stated) | 982 s
56 | Cc1noc(C)c1CC(=O)N1CCN(c2ncnc3c2CCC3)CC1 | 559 s
57 | Cc1cc(F)ccc1NC(=O)c1cn2c(n1)CSCC2 | 728 s
58 | COc1ccc(N2CCN(c3ccc4cc(S(=O)(=O)N5CCC(C)CC5)ccc4n3)CC2)cc1 | 1060 s
59 | Cc1ccc(CN2CCCC(c3nc(C(C)C)no3)CCNC(=O)CC2)s1 (configuration not stated) | 661 s
60 | COc1cc(-c2nnc(SCC(=O)N3CCCC(C)C3)o2)cc(OC)c1OC (configuration not stated) | 889 s
61 | Cc1cc(NC(=O)c2cnccn2)sn1 | 606 s
62 | COCCNC(=O)C1CCCN(C(=O)c2cc(C)cc(C)c2)C1 (configuration not stated) | 686 s
63 | COc1ccc(-c2nc3nc(C)cc(C)n3c2Nc2c(C)cccc2C)cc1 | 766 s
64 | COc1ccc(C(=O)N2C(C(=O)NC(C)C)COC23CCN(C(=O)CC(C)(C)C)CC3)cc1 (configuration not stated) | 713 s
65 | CC(C)(C)C(=O)NCc1cccnc1-c1ccc(F)cc1 | 614 s
66 | Cc1ccc(-c2cn3c(CC(=O)Nc4ccc5c(c4)OCCO5)csc3n2)cc1C | 806 s
67 | O=C(NC1CC1)c1cccc(OCC2CCCN(C(=O)C3CCCO3)C2)c1 (configuration not stated) | 689 s
68 | CCCC(=O)Nc1ccc(-n2cnc(C(=O)NC3CCCC3)c2)nc1 | 726 s

Row | SMILES | RP-LC retention time
69 | CC1CCN(S(=O)(=O)c2ccc3c(c2)CCCC(=O)N3CC(=O)N2CCOCC2)CC1 | 768 s
70 | O=C(NC1CCCCCC1)c1nc(-c2ccnc(N3CCCCC3)c2)no1 | 883 s
71 | Cc1cc(C)cc(NS(=O)(=O)c2cc(-c3nc(C)cs3)sc2C)c1 | 1080 s
72 | O=C(Nc1cccc(F)c1)C1CCc2nc(N3CCOCC3)ncc2C1 (configuration not stated) | 778 s
73 | O=C([C@@H]1C[C@H](F)CN1C(=O)Nc1ccc(C(F)(F)F)cc1)N1CCc2ccccc2C1 | 857 s
74 | CCc1ccc(C2=C(C)C(N3CCCN(C(=O)NC)CC3)=NS2(=O)=O)cc1 | 746 s
75 | COc1ccc(OC)c2sc(NC(=O)c3cc(Cl)sc3Cl)nc12 | 1010 s
76 | CCc1noc(NC(C)=O)c1-c1ccc(C)c(S(=O)(=O)Nc2cc(Cl)c(OC)cc2OC)c1 | 859 s
77 | COc1ccc(NS(=O)(=O)c2cc(-c3noc(C(=O)N4CCCC4)n3)sc2C)cc1OC | 842 s
78 | CCN1C(=O)Cc2cc(C(=O)N3CCN(C4CCCCC4)CC3)ccc21 | 583 s
79 | CCC(=O)N(C1CCOCC1)C1CCN(Cc2cc(F)c(F)c(F)c2)CC1 | 625 s
80 | O=C(NC1CC1)c1nnc(-c2ccc(S(=O)(=O)N3CCCCC3)cc2)o1 | 804 s
81 | CCOc1cc(=O)c(C(=O)N2CCC(C(N)=O)CC2)nn1-c1ccc(F)c(F)c1 | 625 s
82 | Cc1cc(N2CCCCCC2)n2nc(CN3CCN(C(C)C)CC3)nc2n1 | 555 s
83 | Cc1ccsc1CN1CCn2nnc(CCC(=O)N3CCCC3)c2C1 | 646 s
84 | O=c1cc(O)cc(/C=C/c2ccc(O)c(O)c2)o1 | 680 s
85 | CCC(=O)N1CCc2cc(N3CC(C(=O)NCc4ccco4)CC3=O)ccc21 (configuration not stated) | 667 s
86 | CCN(CC)C(=O)c1cc(=O)n(CC(=O)NC2CCCC2)c2ccccc12 | 685 s
87 | CC(C)C(=O)N1CCc2c(c(C(=O)NCc3ccc4c(c3)OCO4)nn2C)C1 | 708 s
